Source: US9353101B2 (Merck Sharp & Dohme Corp., priority 2012, dated 2016)

biological target: CETP (Homo sapiens (Human), UniProt P11597); assay: In vitro radioactive assay of CETP-catalyzed CE and TG transfer (RTA assay), 95% human serum; format: biochemical; conditions: RTA assay in 95% human serum; read-out: RTA IC50 (CETP Inhibition)
Method: In Vitro Radioactive Assays of CETP-Catalyzed CE and TG Transfer (RTA Assay)
Reagents and sources are: [3H] cholesteryl oleate (GE #TRK.886), [3H] Triolein (Perkin-Elmer NET-431), Butylated hydroxyl toluene (Aldrich, #D4740-4), DOPC (Sigma, # P6354), Sodium Bromide (Fisher scientific #S255-500), PEG 8000 (Fisher, #BP233-1), and human HDL (Intracel Corp #RP-036).
An in vitro assay for determining IC50's to identify compounds that inhibit CETP transfer activity is performed based on a modification of a published method (Morton and Zilversmit, (1981) A plasma inhibitor of triglyceride and cholesteryl ester transfer activities, J. Biol. Chem. 256(23), 11992-11995). The ability of inhibitors to alter CETP activity is performed using two different assays: one using recombinant CETP and one using an endogenous plasma source of CETP. Both assays measure the transfer of [3H] cholesteryl oleate or [3H] triolein from exogenous LDL to HDL.
Radiolabeled donor particles are generated by first combining 100 μl of 200 μM butylated hydroxyl toluene in CHCl3, 216 μL of 21.57 mM DOPC in EtOH, and either 500 μCi [3H]-triolein (Perkin Elmer #NET-431) or 500 μCi [3H]-cholesteryl oleate (GE #TRK886) in a glass tube. Reagents are mixed, dried under nitrogen, and then resuspended in 2 mL of 50 mM Tris, 27 μM EDTA at pH 7.4. After a brief vortex, the solution is sonicated until clear and mixed with 20 mL of fresh human serum. The mixture is incubated overnight at 37° C. The [3H] labeled LDL substrate is separated at 1.063 g/ml density by sequential ultracentrifugal flotation in NaBr according to the method by (Havel, Eder et al. 1955; Chapman, Goldstein et al. 1981). Once isolated the particles are dialyzed 3× in CETP buffer (50 mM Tris, pH 7.4, 100 mM NaCl, 1 mM EDTA). Human HDL is purchased from Intracel and used as the acceptor particles.
Transfer assays are performed in a 96 or 384-well v-bottom polypropylene plate. For the RTA using recombinant CETP (2% RTA), an assay cocktail is prepared with the final concentrations 128 μg/mL HDL, 20 nM rCETP, 2% human serum, and 1×CETP buffer. 1 μL of each test compound diluted in DMSO is added to 47 μL of assay cocktail per well and incubated at 37° C. for 1 hour. To initiate the transfer reaction, 2 μL radiolabeled LDL is added. After an additional 60 min of incubation at 37° C., the transfer action is terminated by precipitation of LDL with an equal volume of 20% W/V PEG 8000. The plates are centrifuged at 2000 rpm for 30 minutes at 4° C. A 40 μL aliquot of the HDL-containing supernatant is transferred to a Packard Optiplate™ with 200 μL of MicroScint™ 20. After mixing, plates are counted by liquid scintillation. Counts present in the supernatant for blanks (wells containing only HDL acceptor, CETP buffer and DMSO) are subtracted from those containing test compounds and used to correct for non-specific transfer.
For the transfer assay using endogenous CETP from serum (95% RTA), the same procedure is used except that human serum is added such that a final concentration of serum of 95% of the total assay volume is achieved, yielding a concentration of approximately 15 nM endogenous CETP in the assay. This is then combined with HDL and CETP buffer and the reaction proceeds as above and is terminated as described.
Comparison of the counts of samples with inhibitors to an uninhibited (DMSO only) positive control yield a percent inhibition. A plot of percent inhibition vs. log of inhibitor concentration, fit to a Sigmoidal 4 parameter equation is used to calculate IC50.
Starting materials are commercially available or are made using known procedures or as shown below. The examples may be synthesized using the general schemes provided below. The data reported for the examples below were obtained using the RTA assay in 95% human serum.

Sequence of CETP (P11597 18-493 limits assumed): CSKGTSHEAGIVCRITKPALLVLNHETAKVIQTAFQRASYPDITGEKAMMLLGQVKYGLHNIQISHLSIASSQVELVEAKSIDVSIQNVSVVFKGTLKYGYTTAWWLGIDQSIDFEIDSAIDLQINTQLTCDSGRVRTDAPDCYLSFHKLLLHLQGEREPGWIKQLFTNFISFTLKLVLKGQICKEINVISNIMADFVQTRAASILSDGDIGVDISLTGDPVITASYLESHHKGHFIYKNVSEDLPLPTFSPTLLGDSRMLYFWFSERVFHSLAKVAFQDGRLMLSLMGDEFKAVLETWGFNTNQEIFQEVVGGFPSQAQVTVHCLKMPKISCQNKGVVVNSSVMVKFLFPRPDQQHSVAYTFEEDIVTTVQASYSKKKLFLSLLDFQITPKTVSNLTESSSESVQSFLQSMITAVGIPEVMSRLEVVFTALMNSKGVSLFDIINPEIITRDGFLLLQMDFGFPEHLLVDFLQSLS

| SMILES | IC50 [nM] |
| --- | --- |
| COc1ncc(-c2ccc(C(=O)O)cc2C)cc1-c1cnc(-n2ccnc2)nc1CN1C(=O)O[C@H](c2cc(C(F)(F)F)cc(C(F)(F)F)c2)[C@@H]1C [Example 43, 4-{5-[4-({(4S,5R)-5-[3,5-Bis(trifluoromethyl)phenyl]-4-methyl-2-oxo-1,3-oxazolidin-3-yl}methyl)-2-(1H-imidazol-1-yl)pyrimidin-5-yl]-6-methoxypyridin-3-yl}-3-methylbenzoic acid] | 109 |
| COc1ncc(-c2ccc(C(=O)OC(C)(C)C)cc2C)cc1-c1ccc(N2CC(F)(F)C2)nc1CN1C(=O)O[C@H](c2cc(C(F)(F)F)cc(C(F)(F)F)c2)[C@@H]1C [Example 59] | 15 |
| COc1ncc(-c2ccc(-c3n[nH]c(=O)o3)cc2C)cc1-c1cnc(N2CCOCC2)nc1CN1C(=O)O[C@H](c2cc(C(F)(F)F)cc(C(F)(F)F)c2)[C@@H]1C [Example 40, 5-(4-{5-[4-({(4S,5R)-5-[3,5-Bis(trifluoromethyl)phenyl]-4-methyl-2-oxo-1,3-oxazolidin-3-yl}methyl)-2-(morpholin-4-yl)pyrimidin-5-yl]-6-methoxypyridin-3-yl}-3-methylphenyl)-1,3,4-oxadiazol-2(3H)-one] | 29 |
| COc1ncc(-c2ccc(C(=O)O)cc2C)cc1-c1cnc(N2CCOCC2)nc1CN1C(=O)O[C@H](c2cc(C(F)(F)F)cc(C(F)(F)F)c2)[C@@H]1C [Example 39, 4-{5-[4-({(4S,5R)-5-[3,5-Bis(trifluoromethyl)phenyl]-4-methyl-2-oxo-1,3-oxazolidin-3-yl}methyl)-2-(morpholin-4-yl)pyrimidin-5-yl]-6-methoxypyridin-3-yl}-3-methylbenzoic acid] | 13 |
| COc1ncc(-c2ccc(C(=O)O)cc2C)cc1-c1cnc(N2CC(F)C2)nc1CN1C(=O)O[C@H](c2cc(F)cc(F)c2)[C@@H]1C [Example 44, 4-{5-[4-{[(4S,5R)-5-(3,5-Difluorophenyl)-4-methyl-2-oxo-1,3-oxazolidin-3-yl]methyl}-2-(3-fluoroazetidin-1-yl)pyrimidin-5-yl]-6-methoxypyridin-3-yl}-3-methylbenzoic acid] | 35 |
| Cc1cc(C(=O)O)ccc1-c1cnc(C)c(-c2cnc(N3CC(F)C3)nc2CN2C(=O)O[C@H](c3cc(C(F)(F)F)cc(C(F)(F)F)c3)[C@@H]2C)c1 [Example 54, 4-{5-[4-({(4S,5R)-5-[3,5-Bis(trifluoromethyl)phenyl]-4-methyl-2-oxo-1,3-oxazolidin-3-yl}methyl)-2-(3-fluoroazetidin-1-yl)pyrimidin-5-yl]-6-methylpyridin-3-yl}-3-methylbenzoic acid] | 26 |
| COc1ncc(-c2ccc(C(=O)O)cc2C)cc1-c1cnc(N2CC(F)(F)C2)nc1CN1C(=O)O[C@H](c2cc(C(F)(F)F)cc(C(F)(F)F)c2)[C@@H]1C [Example 42, 4-{5-[4-({(4S,5R)-5-[3,5-Bis(trifluoromethyl)phenyl]-4-methyl-2-oxo-1,3-oxazolidin-3-yl}methyl)-2-(3,3-difluoroazetidin-1-yl)pyrimidin-5-yl]-6-methoxypyridin-3-yl}-3-methylbenzoic acid] | 9 |
| COc1ncc(-c2ccc(C(=O)O)cc2C)cc1-c1ccc(N2CC(F)C2)nc1CN1C(=O)O[C@H](c2cc(C(F)(F)F)cc(C(F)(F)F)c2)[C@@H]1C [Example 62] | 6 |
| COc1ncc(-c2ccc(C(=O)O)cc2C)cc1-c1cnc(N2CC(F)C2)nc1CN1C(=O)O[C@H](c2cc(F)cc(C(F)(F)F)c2)[C@@H]1C [Example 46, 4-{5-[2-(3-Fluoroazetidin-1-yl)-4-({(4S,5R)-5-[3-fluoro-5-(trifluoromethyl)phenyl]-4-methyl-2-oxo-1,3-oxazolidin-3-yl}methyl)pyrimidin-5-yl]-6-methoxypyridin-3-yl}-3-methylbenzoic acid] | 12 |
| COc1ncc(C(C)C)cc1-c1cnc(N2CC(F)(F)C2)nc1CN1C(=O)O[C@H](c2cc(C(F)(F)F)cc(C(F)(F)F)c2)[C@@H]1C [Example 28, (4S,5R)-5-[3,5-Bis(trifluoromethyl)phenyl]-3-{[2-(3,3-difluoroazetidin-1-yl)-5-(5-isopropyl-2-methoxypyridin-3-yl)pyrimidin-4-yl]methyl}-4-methyl-1,3-oxazolidin-2-one] | 5 |
| COc1ncc(-c2c(C)n[nH]c2C)cc1-c1cnc(N2CC(F)C2)nc1CN1C(=O)O[C@H](c2cc(C(F)(F)F)cc(C(F)(F)F)c2)[C@@H]1C [Example 17, (4S,5R)-5-[3,5-Bis(trifluoromethyl)phenyl]-3-({5-[5-(3,5-dimethyl-1H-pyrazol-4-yl)-2-methoxypyridin-3-yl]-2-(3-fluoroazetidin-1-yl)pyrimidin-4-yl}methyl)-4-methyl-1,3-oxazolidin-2-one] | 5 |
| COc1ncc(C(F)(F)F)cc1-c1cnc(N2CC(F)C2)nc1CN1C(=O)O[C@H](c2cc(C(F)(F)F)cc(C(F)(F)F)c2)[C@@H]1C [Example 9, (4S,5R)-5-[3,5-Bis(trifluoromethyl)phenyl]-3-({2-(3-fluoroazetidin-1-yl)-5-[2-methoxy-5-(trifluoromethyl)pyridin-3-yl]pyrimidin-4-yl}methyl)-4-methyl-1,3-oxazolidin-2-one] | 14 |
| CCn1nc(C)c(-c2cnc(OC)c(-c3cnc(N4CC(F)C4)nc3CN3C(=O)O[C@H](c4cc(C(F)(F)F)cc(C(F)(F)F)c4)[C@@H]3C)c2)c1C [Example 19] | 9 |
| COc1ncc(C(C)C)cc1-c1cnc(N2[C@H](C)CC[C@H]2C)nc1CN1C(=O)O[C@H](c2cc(C(F)(F)F)cc(C(F)(F)F)c2)[C@@H]1C [Example 29] | 430 |
| COc1ncc(-c2c(C)cc(C(=O)O)cc2C)cc1-c1cnc(N2CC(F)C2)nc1CN1C(=O)O[C@H](c2cc(F)cc(C(F)(F)F)c2)[C@@H]1C [Example 48, 4-{5-[2-(3-Fluoroazetidin-1-yl)-4-({(4S,5R)-5-[3-fluoro-5-(trifluoromethyl)phenyl]-4-methyl-2-oxo-1,3-oxazolidin-3-yl}methyl)pyrimidin-5-yl]-6-methoxypyridin-3-yl}-3,5-dimethylbenzoic acid] | 15 |
| COc1ncc(-c2ccc(C(=O)OC(C)(C)C)cc2C)cc1-c1ccc(N2CC(F)C2)nc1CN1C(=O)O[C@H](c2cc(C(F)(F)F)cc(C(F)(F)F)c2)[C@@H]1C [Example 61] | 15 |
| COc1ncc(-c2c(C)cc(C(=O)O)cc2C)cc1-c1cnc(N2CC(F)(F)C2)cc1CN1C(=O)O[C@H](c2cc(C(F)(F)F)cc(C(F)(F)F)c2)[C@@H]1C [Example 63] | 52 |
| Cc1cc(C(=O)O)ccc1-c1nc(C)c(-c2cnc(N3CC(F)(F)C3)nc2CN2C(=O)O[C@H](c3cc(C(F)(F)F)cc(C(F)(F)F)c3)[C@@H]2C)s1 [Example 52, 4-{5-[4-({(4S,5R)-5-[3,5-Bis(trifluoromethyl)phenyl]-4-methyl-2-oxo-1,3-oxazolidin-3-yl}methyl)-2-(3,3-difluoroazetidin-1-yl)pyrimidin-5-yl]-4-methyl-1,3-thiazol-2-yl}-3-methylbenzoic acid] | 61 |
| COc1ncc(-c2ccc(-c3n[nH]c(=O)o3)cc2C)cc1-c1cnc(N2CC(F)C2)nc1CN1C(=O)O[C@H](c2cc(C(F)(F)F)cc(C(F)(F)F)c2)[C@@H]1C [Example 38, 5-(4-{5-[4-({(4S,5R)-5-[3,5-Bis(trifluoromethyl)phenyl]-4-methyl-2-oxo-1,3-oxazolidin-3-yl}methyl)-2-(3-fluoroazetidin-1-yl)pyrimidin-5-yl]-6-methoxypyridin-3-yl}-3-methylphenyl)-1,3,4-oxadiazol-2(3H)-one] | 12 |
